# Results: ChEMBL document CHEMBL1201862, “PubChem BioAssay data set” (2004)
# Calls of active or inactive are those of the source.
# Columns and labels:
# [1] = reduction of Shn3 3'UTR-driven luciferase in osteoblasts – cell-based, Clone20 osteoblasts, firefly luciferase, cherry-picked, dose response (AID 624132); format: functional;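 note: firefly luciferase luminescence from reporter carrying the Shn3 3'UTR in osteoblasts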
# [2] = loss of viability in HepG2 cells – cell-based, CellTiter-Glo, cherry-picked, cytotoxicity control for Shn3 inhibitor project, dose response (AID 624134); format: functional
# [3] = non-specific 3'UTR reporter inhibition in Clone20-Shn3RL – cell-based, Renilla luciferase, cherry-picked, counter-screen for Shn3 inhibitor project, dose response (AID 624133); format: functional
# Protein Wnt-3a = Protein Wnt-3a (Mus musculus, UniProt P27467); test: antagonism of Wnt3a pathway luciferase reporter – Wnt-LIGHT cells, luminescence, selectivity assay for Gli-SUFU antagonist project, dose response (AID 651570); format: functional; settings: read-out: IC50_Mean;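 note: Wnt-LIGHT reporter cells stimulated with conditioned medium from Wnt3a-producing cells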
# [4] = molecular target: G-protein coupled receptor 55 (Homo sapiens, UniProt Q9Y2T6); test: inhibition of LPI-stimulated GPR55 beta-arrestin translocation – imaging, U2OS, beta-arrestin-GFP, LPI agonist, primary screen (AID 2013); format: functional;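 note: antagonist potency measured as reduced agonist-driven arrestin aggregation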
# cells [5] = format: functional, cell-based
# cells [6] = format: functional, cell-based; remark: listed apart in the source
# [7] = viability of PTEN-deleted HCT116 cells – cell-based, HCT116 PTEN knockout, dose response (AID 1047); format: functional;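 note: HCT116 colon tumor cells with PTEN knocked out; cells exposed to compound for 60 hours before readout; potency for loss of cell viability measured by luminescence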
# [8] = molecular target: T1, Microphthalmia-associated transcription factor (Homo sapiens, UniProt O75030); test: reducers of TRPM1 reporter luminescence, concentration series – cell-based, SK-MEL-5, cherry-picked, set 3, MITF inhibitor project, dose response (AID 493073); format: functional;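 note: SK-MEL-5 melanoma cells with luciferase driven by the MITF target TRPM1 promoter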
# T1 sequence (O75030 whole entry): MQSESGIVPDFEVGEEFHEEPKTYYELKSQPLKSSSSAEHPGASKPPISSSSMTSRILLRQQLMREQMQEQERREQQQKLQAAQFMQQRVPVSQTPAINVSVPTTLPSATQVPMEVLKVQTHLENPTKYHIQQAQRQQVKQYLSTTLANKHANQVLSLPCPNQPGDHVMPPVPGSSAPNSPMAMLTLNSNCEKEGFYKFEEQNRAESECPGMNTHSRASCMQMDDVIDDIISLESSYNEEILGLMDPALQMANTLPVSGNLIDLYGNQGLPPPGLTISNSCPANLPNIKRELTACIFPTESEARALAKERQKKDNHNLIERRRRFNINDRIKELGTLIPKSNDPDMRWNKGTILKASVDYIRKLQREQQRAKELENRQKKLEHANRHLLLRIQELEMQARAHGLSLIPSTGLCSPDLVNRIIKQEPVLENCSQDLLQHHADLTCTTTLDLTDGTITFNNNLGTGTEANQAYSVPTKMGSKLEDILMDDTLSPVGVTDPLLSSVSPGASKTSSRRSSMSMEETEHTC
# [9] = HEK-293T viability loss after treatment – luminescence, T-cell screen hits, cytotoxicity control for TCR NF-kB inhibitor project, dose response (AID 489026); format: functional, cell-based;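 note: cells exposed to compound about 14 hours before the viability readout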
# INS1 = test: INS-1E survival protection against cytokine death – cell-based, luminescence, retest, dose response (AID 449756); format: functional; settings: Rattus norvegicus;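 note: cell death triggered by IL-1 beta plus TNF-alpha plus IFN-gamma mixture; protective hits raise ATP signal compared with cytokine alone wells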
# [10] = viability of HCT116 lacking mutant beta-catenin – cell-based, human colon tumor, dose response (AID 1045); format: functional;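 note: HCT116 colon tumor cells with beta catenin knocked out; cells exposed to compound for 60 hours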
# Cysteine protease ATG4B = molecular target: T2, Cysteine protease ATG4B (Homo sapiens, UniProt Q9Y4P1); format: functional;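 note: Fluorescence-based dose-response confirmation assay measuring inhibition of ATG4B activity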
# T2 sequence (Q9Y4P1 whole entry): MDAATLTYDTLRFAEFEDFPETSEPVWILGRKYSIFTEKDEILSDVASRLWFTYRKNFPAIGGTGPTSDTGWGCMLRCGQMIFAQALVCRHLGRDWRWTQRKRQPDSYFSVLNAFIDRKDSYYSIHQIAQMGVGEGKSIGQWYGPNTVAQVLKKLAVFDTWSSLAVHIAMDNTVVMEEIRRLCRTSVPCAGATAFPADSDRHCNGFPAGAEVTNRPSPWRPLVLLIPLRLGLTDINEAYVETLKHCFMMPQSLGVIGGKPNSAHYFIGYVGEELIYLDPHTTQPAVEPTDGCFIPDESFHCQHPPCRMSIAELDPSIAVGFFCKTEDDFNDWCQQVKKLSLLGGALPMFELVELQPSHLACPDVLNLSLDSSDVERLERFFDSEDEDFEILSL
# Phospholipase A2 = Phospholipase A2 (Homo sapiens, UniProt P04054); format: functional;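 note: confirmatory dose-response counterscreen on phospholipase A2, testing hits that came from an ultra-high-throughput screen for ATG4B inhibitors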
# [11] = Trypanosoma cruzi growth suppression in host cells – NIH3T3 host cells, beta-gal luminescence, confirmation (AID 2044); format: functional, cell-based;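 note: intracellular parasites grown in NIH/3T3 mouse fibroblasts as host cells; luminescent beta-galactosidase reporter signal from transgenic T. cruzi replicating inside host cells; inhibitors lower the luminescence signal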
# [12] = NIH3T3 cell viability loss – ATP luminescence, mouse fibroblasts, counter-screen, dose response (AID 2010); format: functional, cell-based;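 note: cells exposed to compound for about 90 hours before reading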
# Beta-galactosidase [13] = molecular target: T3, Beta-galactosidase (Escherichia coli, UniProt Q8VNN2); test: detection-enzyme interference by beta-gal modulators – biochemical, E. coli enzyme, set 3, artefact control for CCR6 antagonist project, dose response (AID 504712); format: functional
# Protein skinhead-1 = molecular target: T4, Protein skinhead-1 (Caenorhabditis elegans, UniProt P34707); format: functional
# T4 sequence (P34707 whole entry): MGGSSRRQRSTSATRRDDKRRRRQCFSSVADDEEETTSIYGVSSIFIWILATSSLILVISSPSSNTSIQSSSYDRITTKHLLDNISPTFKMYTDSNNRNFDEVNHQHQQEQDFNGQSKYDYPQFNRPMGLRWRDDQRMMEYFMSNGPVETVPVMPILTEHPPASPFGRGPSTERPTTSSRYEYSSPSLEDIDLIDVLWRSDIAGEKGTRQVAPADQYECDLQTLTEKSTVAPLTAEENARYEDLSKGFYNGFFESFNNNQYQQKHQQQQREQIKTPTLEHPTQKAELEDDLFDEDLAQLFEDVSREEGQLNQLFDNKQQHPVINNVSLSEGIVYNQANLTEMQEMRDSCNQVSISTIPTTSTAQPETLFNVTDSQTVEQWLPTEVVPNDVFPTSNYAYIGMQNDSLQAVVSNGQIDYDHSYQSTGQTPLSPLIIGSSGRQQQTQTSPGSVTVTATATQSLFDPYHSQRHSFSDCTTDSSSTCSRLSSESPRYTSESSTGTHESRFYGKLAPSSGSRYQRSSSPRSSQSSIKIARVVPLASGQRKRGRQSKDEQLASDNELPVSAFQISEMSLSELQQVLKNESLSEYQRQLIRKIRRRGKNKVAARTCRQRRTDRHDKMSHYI
# [14] = HIV-1 AD8 envelope cell-cell fusion blockers – cherry-pick, dose response (AID 652062); format: functional, cell-based;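 note: luciferase signal from cell-cell fusion driven by HIV-1 clade B AD8 Env; potency is for inhibitors of fusion seen as a drop in luminescence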
# [15] = molecular target: Glucose-6-phosphate 1-dehydrogenase (Homo sapiens, UniProt P11413); test: inhibition of Homo sapiens G6PD, dose series – biochemical, fluorescence, selectivity assay for P. falciparum G6PD inhibitor project, dose response (AID 504792); format: functional
# Prothrombin = Prothrombin (Homo sapiens, UniProt P00734); test: Thrombin 1536 HTS Dose Response Confirmation. [Related pubchem assays: 1046 (Thrombin 1536 HTS; hits were confirmed in this assay)]; format: functional
# Coagulation factor XII = molecular target: T5, Coagulation factor XII (Homo sapiens, UniProt P00748); format: functional;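 note: activated factor XIIa alpha cleaving a fluorogenic AMC peptide substrate; inhibitor potency from loss of enzyme activity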
# T5 sequence (P00748 whole entry): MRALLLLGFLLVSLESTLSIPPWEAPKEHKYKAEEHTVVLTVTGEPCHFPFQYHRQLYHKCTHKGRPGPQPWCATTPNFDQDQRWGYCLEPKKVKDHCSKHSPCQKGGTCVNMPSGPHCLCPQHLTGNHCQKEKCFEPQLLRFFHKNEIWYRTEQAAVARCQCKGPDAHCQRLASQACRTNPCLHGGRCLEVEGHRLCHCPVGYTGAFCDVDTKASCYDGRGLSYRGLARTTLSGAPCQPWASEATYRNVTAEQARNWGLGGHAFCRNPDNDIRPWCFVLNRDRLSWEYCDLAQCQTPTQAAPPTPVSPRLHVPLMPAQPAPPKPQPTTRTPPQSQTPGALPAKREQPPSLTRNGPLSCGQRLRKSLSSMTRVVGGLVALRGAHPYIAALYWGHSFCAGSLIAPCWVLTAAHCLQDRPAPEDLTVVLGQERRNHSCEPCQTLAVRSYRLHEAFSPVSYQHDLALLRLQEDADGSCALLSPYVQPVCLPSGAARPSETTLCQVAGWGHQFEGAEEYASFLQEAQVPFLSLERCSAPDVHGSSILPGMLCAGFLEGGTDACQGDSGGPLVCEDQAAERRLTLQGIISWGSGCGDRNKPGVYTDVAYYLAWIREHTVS
# [16] = molecular target: NAD-dependent protein deacylase sirtuin-5, mitochondrial (Homo sapiens, UniProt Q9NXA8); test: sirtuin-5 deacylation blockers, concentration series – biochemical, fluorescence imaging, cherry-pick, set 5, dose response (AID 720591);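 note: desuccinylation of succinyl peptide AMC substrate read as fluorescence after trypsin release; potency of inhibitors that lower fluorescence and may act on trypsin instead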
# Beta-galactosidase [17] = molecular target: T3, Beta-galactosidase; test: PubChem AID 485352; format: functional
# [18] = molecular target: T6, Type-1 angiotensin II receptor (Homo sapiens, UniProt P30556); test: antagonism of angiotensin II type 1 receptor – cell-based, uHTS hits, selectivity assay for APJ receptor antagonist project, dose response (AID 463214); format: functional;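 note: antagonist potency against angiotensin II stimulated AT1 response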
# T6 sequence (P30556 whole entry): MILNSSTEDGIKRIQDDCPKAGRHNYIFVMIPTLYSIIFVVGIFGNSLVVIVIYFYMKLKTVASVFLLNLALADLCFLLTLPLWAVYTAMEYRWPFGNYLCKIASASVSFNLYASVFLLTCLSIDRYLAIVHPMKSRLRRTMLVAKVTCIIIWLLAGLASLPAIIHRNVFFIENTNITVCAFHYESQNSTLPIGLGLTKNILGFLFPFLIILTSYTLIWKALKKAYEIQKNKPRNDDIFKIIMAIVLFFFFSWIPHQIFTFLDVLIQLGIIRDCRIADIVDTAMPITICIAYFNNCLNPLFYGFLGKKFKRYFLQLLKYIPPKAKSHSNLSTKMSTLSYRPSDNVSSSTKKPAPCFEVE
# Genome polyprotein = Genome polyprotein (dengue virus type 2, UniProt P29990); test: flavivirus cap methylation enzyme inhibition – biochemical, confirmation dose response, primary screen (AID 588689); format: functional
# Chain of Genome polyprotein (P29990 2492-3391 limits assumed): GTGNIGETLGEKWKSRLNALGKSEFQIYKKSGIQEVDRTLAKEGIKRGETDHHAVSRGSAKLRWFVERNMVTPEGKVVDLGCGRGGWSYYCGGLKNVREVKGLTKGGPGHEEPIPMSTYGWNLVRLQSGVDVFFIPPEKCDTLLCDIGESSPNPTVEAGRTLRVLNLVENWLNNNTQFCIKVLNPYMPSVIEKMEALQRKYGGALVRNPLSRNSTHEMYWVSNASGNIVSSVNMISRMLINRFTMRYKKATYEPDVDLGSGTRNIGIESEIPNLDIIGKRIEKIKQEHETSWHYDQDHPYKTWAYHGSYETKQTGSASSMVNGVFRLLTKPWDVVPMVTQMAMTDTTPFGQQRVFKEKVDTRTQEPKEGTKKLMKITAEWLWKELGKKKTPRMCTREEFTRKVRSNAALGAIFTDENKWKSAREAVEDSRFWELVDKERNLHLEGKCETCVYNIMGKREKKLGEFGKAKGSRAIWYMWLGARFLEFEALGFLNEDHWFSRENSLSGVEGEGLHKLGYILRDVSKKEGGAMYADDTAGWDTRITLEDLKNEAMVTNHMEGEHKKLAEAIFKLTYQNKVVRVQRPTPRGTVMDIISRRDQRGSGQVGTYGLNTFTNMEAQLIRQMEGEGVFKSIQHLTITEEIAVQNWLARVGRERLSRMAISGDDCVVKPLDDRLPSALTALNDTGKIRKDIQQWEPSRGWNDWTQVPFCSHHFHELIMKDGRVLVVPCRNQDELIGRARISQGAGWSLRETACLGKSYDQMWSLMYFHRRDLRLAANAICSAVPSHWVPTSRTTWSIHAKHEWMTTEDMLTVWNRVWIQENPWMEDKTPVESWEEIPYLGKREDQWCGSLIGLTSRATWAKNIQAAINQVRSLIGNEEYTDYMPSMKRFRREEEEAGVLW
# Chain of Protein Wnt-3a (P27467 whole entry): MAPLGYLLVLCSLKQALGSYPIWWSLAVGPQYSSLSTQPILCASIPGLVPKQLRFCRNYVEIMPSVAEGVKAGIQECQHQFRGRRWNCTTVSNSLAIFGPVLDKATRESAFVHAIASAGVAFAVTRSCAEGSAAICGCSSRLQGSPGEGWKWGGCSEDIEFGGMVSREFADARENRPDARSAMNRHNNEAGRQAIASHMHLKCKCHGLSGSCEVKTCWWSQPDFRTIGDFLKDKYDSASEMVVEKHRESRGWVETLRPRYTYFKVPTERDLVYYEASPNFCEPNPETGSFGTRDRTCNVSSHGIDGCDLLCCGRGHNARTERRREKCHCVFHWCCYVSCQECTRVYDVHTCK
# T3 sequence (Q8VNN2 whole entry): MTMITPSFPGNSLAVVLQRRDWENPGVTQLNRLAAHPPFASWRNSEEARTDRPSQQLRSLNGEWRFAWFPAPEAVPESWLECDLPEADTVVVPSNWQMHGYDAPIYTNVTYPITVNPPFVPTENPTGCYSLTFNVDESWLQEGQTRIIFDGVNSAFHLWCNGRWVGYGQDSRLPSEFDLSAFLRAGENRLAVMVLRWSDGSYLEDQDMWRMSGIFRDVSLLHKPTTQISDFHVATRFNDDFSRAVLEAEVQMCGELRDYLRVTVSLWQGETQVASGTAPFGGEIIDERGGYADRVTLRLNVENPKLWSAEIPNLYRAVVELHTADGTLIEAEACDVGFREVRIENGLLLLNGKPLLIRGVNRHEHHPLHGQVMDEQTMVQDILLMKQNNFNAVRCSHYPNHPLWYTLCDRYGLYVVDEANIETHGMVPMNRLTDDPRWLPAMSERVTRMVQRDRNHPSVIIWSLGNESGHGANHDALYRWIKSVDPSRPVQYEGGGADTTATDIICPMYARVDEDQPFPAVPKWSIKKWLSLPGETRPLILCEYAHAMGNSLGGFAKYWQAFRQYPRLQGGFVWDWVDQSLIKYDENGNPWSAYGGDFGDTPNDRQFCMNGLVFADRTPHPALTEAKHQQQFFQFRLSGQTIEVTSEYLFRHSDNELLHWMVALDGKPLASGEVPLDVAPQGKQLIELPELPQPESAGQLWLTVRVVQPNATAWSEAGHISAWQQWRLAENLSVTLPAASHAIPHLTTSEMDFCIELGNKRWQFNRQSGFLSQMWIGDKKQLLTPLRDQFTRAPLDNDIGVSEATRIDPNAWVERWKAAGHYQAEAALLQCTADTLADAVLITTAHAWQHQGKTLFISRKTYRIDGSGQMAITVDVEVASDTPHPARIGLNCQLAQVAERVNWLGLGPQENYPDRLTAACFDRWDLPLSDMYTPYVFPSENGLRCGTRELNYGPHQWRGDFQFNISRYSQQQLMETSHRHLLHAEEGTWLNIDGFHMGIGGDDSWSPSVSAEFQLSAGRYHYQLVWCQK
# Chain of Phospholipase A2 (P04054 whole entry): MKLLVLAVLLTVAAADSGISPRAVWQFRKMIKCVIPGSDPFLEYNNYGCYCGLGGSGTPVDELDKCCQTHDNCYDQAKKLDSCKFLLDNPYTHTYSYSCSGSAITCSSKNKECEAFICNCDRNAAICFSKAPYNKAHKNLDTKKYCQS
# Chain of G-protein coupled receptor 55 (Q9Y2T6 whole entry): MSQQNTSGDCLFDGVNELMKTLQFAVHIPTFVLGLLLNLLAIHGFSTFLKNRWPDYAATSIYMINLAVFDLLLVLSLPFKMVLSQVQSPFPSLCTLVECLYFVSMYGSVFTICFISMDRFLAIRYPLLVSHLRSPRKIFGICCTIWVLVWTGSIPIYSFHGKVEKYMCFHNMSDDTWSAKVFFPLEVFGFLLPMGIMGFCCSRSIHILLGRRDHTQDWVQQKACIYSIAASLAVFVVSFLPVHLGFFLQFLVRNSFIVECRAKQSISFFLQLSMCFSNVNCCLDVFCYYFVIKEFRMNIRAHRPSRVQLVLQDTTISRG
# Chain of Glucose-6-phosphate 1-dehydrogenase (P11413 whole entry): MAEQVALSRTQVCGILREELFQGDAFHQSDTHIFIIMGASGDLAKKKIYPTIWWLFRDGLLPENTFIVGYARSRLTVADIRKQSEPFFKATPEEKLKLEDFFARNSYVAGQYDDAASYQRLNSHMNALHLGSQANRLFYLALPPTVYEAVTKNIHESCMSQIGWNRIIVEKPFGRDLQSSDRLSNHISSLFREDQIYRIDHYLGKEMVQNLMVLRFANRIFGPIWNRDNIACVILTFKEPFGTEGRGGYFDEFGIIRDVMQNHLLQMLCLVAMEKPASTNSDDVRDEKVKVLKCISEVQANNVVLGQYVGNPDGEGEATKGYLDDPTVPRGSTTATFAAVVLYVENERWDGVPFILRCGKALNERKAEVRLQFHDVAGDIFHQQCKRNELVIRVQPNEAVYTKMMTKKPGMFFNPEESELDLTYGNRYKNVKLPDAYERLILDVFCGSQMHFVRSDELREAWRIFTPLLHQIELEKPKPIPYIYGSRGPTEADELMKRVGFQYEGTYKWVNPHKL
# Chain of NAD-dependent protein deacylase sirtuin-5, mitochondrial (Q9NXA8 whole entry): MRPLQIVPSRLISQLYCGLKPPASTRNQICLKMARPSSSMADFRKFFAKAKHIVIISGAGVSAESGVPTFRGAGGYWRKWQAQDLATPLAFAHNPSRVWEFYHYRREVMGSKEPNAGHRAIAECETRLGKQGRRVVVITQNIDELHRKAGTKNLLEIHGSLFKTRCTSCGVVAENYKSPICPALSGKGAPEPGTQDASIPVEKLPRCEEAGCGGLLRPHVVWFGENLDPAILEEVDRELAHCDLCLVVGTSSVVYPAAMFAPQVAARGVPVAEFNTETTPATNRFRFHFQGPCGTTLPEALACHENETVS
compound,measurement,setting,value
Cc1c(C(C)C)c(=O)n(-c2ccc(S(=O)(=O)NC3CCCCC3)cc2)n1C,AC50,[1],1.06 µM (active)
same,AC50,[2],3.93 µM (active)
same,AC50,[3],1.76 µM (active)
same,IC50,Protein Wnt-3a,2.91 µM (active)
CN(C)c1ccnc(N(Cc2ccccc2)Cc2ccccc2)c1C#N,IC50,[4],0.509 µM (active)
Oc1nc(Nc2ccccc2)nc(N2CCCC2)n1,IC50,cells [5],> 29.9 µM (inactive)
same,EC50,cells [6],> 29.9 µM (inactive)
CC(C)C[C@H](NC(=O)c1[nH]cnc1C(=O)NCc1ccc(CNC(=O)OC(C)(C)C)cc1)C(=O)OCc1ccccc1,IC50,[4],2.3 µM (active)
COC(=O)c1ccc(/C=C(\C#N)C(=O)NC(C)c2ccccc2)cc1 (centres undefined),EC50,[7],47.1 µM (active)
same,AC50,[8],10.7 µM (active)
CC[n+]1c(C=C2C=CN(C)C=C2)ccc2cc(C)ccc21,AC50,[8],1.74 µM (active)
COc1cccc(CN(C)C(=O)c2cc(COc3ccc4ncccc4c3)on2)c1,IC50,[9],59.9 µM (inactive)
same,AC50,INS1,5.13 µM (active)
same,AC50,[1],1.49 µM (active)
same,AC50,[2],3.93 µM (active)
same,AC50,[3],2.1 µM (active)
same,IC50,Protein Wnt-3a,1.02 µM (active)
COc1ccc(C(C)=O)cc1CSc1nc2ccccc2c(=O)n1-c1cccc(C)c1,EC50,[7],28.9 µM (active)
same,EC50,[10],29.1 µM (active)
same,IC50,Cysteine protease ATG4B,0.502 µM (active)
same,IC50,Phospholipase A2,0.321 µM (active)
O=[N+]([O-])c1ccc(/C=C/C2=NN(c3ccccc3)C(c3ccco3)C2)o1 (centres undefined),EC50,[11],0.427 µM (active)
same,EC50,[12],18.5 µM (active)
same,IC50,Beta-galactosidase [13],41 µM (inactive)
same,IC50,Protein skinhead-1,> 100 µM (inactive)
O=C(c1cccc(S(=O)(=O)N2CCN(c3ccccc3)CC2)c1)N1CCCC(C(F)(F)F)C1 (centres undefined),AC50,[1],2.68 µM (active)
same,AC50,[2],37.3 µM (active)
same,AC50,[3],0.475 µM (active)
same,IC50,Protein Wnt-3a,41.8 µM (inactive)
same,AC50,[14],6.01 µM (active)
Cc1ccccc1-n1c(-c2ccc3ccccc3n2)n[nH]c1=S,IC50,[15],> 80 µM (inactive)
Cc1cc(C(=O)Nc2nc(C)c(C(=O)N(C)C)s2)ccc1[N+](=O)[O-],IC50,Prothrombin,> 50 µM (not active)
same,IC50,Coagulation factor XII,> 50 µM (inactive)
Cc1c(-c2ccc(OCCN3CCOCC3)cc2)c(=O)oc2ccc3ccccc3c12,AC50,[16],> 30 µM (inactive)
CC1=NN(C(N)=S)C(=O)C1N=Nc1ccc([N+](=O)[O-])cc1 (centres undefined),EC50,Beta-galactosidase [17],> 40 µM (inactive)
same,IC50,[18],35.3 µM (not active)
FC(F)(F)Oc1ccc(NC(S)=NCc2ccccc2)cc1,IC50,Cysteine protease ATG4B,25.4 µM (inactive)
same,IC50,Phospholipase A2,12.2 µM (active)
CN(C)/C=C/c1c(C#N)c(=O)ncn1Cc1ccccc1,IC50,Coagulation factor XII,> 50 µM (inactive)
O=C(O)c1ccc(/C=C2\SC(=S)N(Nc3ccccc3)C2=O)cc1,IC50,Coagulation factor XII,> 50 µM (inactive)
same,AC50,INS1,3.85 µM (active)
same,IC50,Genome polyprotein,58 µM (active)
O=C(O)/C=C/C(=O)NCc1csc2ccccc12,IC50,cells [5],> 29.9 µM (inactive)
same,EC50,cells [6],> 29.9 µM (inactive)
